Data reported in patent US8772323B2, “Benzoxazole- and tetrahydrobenzoxazole-substituted pyridazinones as GPR119 agonists” (Boehringer Ingelheim International GmbH, priority 2010, dated 2014).
pEC50: −log10 of the molar value.

Molecular target: human GPR119 (Homo sapiens (Human), UniProt Q8TDV5)
Test: AlphaScreen cAMP assay in Min-6/hGPR119 cells (GPR119 activation, intracellular cAMP)
Assay type: cell-based
Conditions: MIN6 cells stably transfected with human GPR119; 45 minutes' incubation at RT; AlphaScreen cAMP Assay Kit
Protocol: The compounds of formula I according to the invention are GPR119 agonists. The effect of the compounds on the activation of GPR119 and on the stimulation of intracellular cAMP concentration is determined using the AlphaScreen cAMP Assay Kit (Cat. No. #6760625R) made by PerkinElmer.
MIN6 cells [Miyazaki J et al. Endocrinology. 1990 July; 127(1):126-32] were stably transfected with an expression vector for human GPR119 cDNA (Acc. No. NP_848566). Min-6/hGPR119 cells are cultured in DMEM, 10% FBS, 50 μM β-mercaptoethanol, 0.3 mg/mL Geniticin, 2 mM GlutaMAX at 37° C. 5% CO2. For the assay, the cells are placed in Optiplates (white, 384-well, 160W-barcoded, TC, sterile with lid, Cat. No. #6007688 (Perkin Elmer); 10000 cells/well; 50 μl). The plates covered with lids are then incubated for 24 hours at 37° C./5% CO2.
After the medium has been sucked out of the wells completely, 10 μl of the test compound are added, the compounds are diluted beforehand with stimulating buffer (140 mM NaCl, 3.6 mM KCl, 0.5 mM NaH2PO4, 0.5 mM MgSO4, 1.5 mM CaCl2, 10 mM Hepes, 5 mM NaHCO3; pH 7.4. 0.5 mM IBMX and 0.1% BSA, the final DMSO concentration is 1%). After 45 minutes' incubation at RT, the cAMP concentrations are determined using the AlphaScreen cAMP Assay Kit (Cat. No. #6760625R from PerkinElmer).

Chain of human GPR119 (Q8TDV5 whole entry): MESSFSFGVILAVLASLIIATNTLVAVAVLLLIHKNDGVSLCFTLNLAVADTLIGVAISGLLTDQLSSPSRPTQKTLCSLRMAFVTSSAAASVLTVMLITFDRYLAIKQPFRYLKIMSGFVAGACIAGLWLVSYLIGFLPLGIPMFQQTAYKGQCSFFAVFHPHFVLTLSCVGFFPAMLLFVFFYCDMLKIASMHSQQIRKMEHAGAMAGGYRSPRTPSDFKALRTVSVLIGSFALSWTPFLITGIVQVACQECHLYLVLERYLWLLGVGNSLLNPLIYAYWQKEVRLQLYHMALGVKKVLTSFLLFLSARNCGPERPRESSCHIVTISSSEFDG

SMILES	pEC50
O=C1CCC(c2ccc3nc(N4CCSCC4)oc3c2)=NN1 [Example 119, 6-(2-thiomorpholin-1-yl-benzoxazol-6-yl)-4,5-dihydro-2H-pyridazin-3-one]	5.46
O=C1CC(C2CC2)C(N2CCc3nc(-c4ccccc4)oc3C2)=NN1 (stereo not shown) [Example 138, 5-cyclopropyl-6-(2-phenyl-6,7-dihydro-4H-oxazolo[5,4-c]pyridin-5-yl)-4,5-dihydro-2H-pyridazin-3-one]	5.88
O=C1NN=C(N2CCc3nc(-c4ccccc4)oc3C2)C2CC12 (stereo not shown) [Example 135, 5-(2-phenyl-4,5,6,7-tetrahydro-4H-oxazolo[5,4-c]pyridin-5-yl)-3,4-diaza-bicyclo[4.1.0]hept-4-en-2-one]	6.41
CCC1CC(=O)NN=C1c1ccc2nc(-c3ccc(N(C)C)cc3)oc2c1 (stereo not shown) [Example 96, 6-[2-(4-dimethylamino-phenyl)-benzoxazol-6-yl]-5-ethyl-4,5-dihydro-2H-pyridazin-3-one]	7.38
COc1cccc(-c2nc3ccc(C4=NNC(=O)CC4C)cc3o2)c1 (stereo not shown) [Example 85, 6-[2-(3-methoxy-phenyl)-benzoxazol-6-yl]-5-methyl-4,5-dihydro-2H-pyridazin-3-one]	6.48
CCC1CC(c2ccc3nc(-c4cccs4)oc3c2)=NNC1=O (stereo not shown) [Example 141, 4-ethyl-6-(2-thiophen-2-yl-benzoxazol-6-yl)-4,5-dihydro-2H-pyridazin-3-one]	5.13
CCC1CC(=O)NN=C1c1ccc2nc(-c3cccc(OCCN(CC(C)C)CC(C)C)c3)oc2c1 (stereo not shown) [Example 156, 6-{2-[3-(2-diisobutylamino-ethoxy)-phenyl]-benzoxazol-6-yl}-5-ethyl-4,5-dihydro-2H-pyridazin-3-one]	6.61
CCC1CC(=O)NN=C1c1ccc2nc(-c3ccc(C)s3)oc2c1 (stereo not shown) [Example 101, 5-ethyl-6-[2-(5-methyl-thiophen-2-yl)-benzoxazol-6-yl]-4,5-dihydro-2H-pyridazin-3-one]	6.71
C[C@H]1CC(=O)NN=C1c1ccc2nc(-c3ccccc3)oc2c1 [Example 1, (S)-5-methyl-6-(2-phenyl-benzoxazol-6-yl)-4,5-dihydro-2H-pyridazin-3-one]	6.18
CCC1CC(=O)NN=C1c1ccc2nc(-c3cccc(OC(C)CN4CCCCC4)c3)oc2c1 (stereo not shown) [Example 230, 5-ethyl-6-{2-[3-(1-methyl-2-piperidin-1-yl-ethoxy)-phenyl]-benzoxazol-6-yl}-4,5-dihydro-2H-pyridazin-3-one]	5.93
CC[C@@H]1CC(=O)NN=C1c1ccc2nc(-c3ccc(OC4CCOCC4)cc3)oc2c1 [Example 195, (R)-5-ethyl-6-{2-[4-(tetrahydro-pyran-4-yloxy)-phenyl]-benzoxazol-6-yl}-4,5-dihydro-2H-pyridazin-3-one]	7.29
CCC[C@H]1C(=O)NN=C(c2ccc3nc(-c4ccsc4)oc3c2)[C@@H]1C (relative stereo) [Example 187, trans-5-methyl-4-propyl-6-(2-thiophen-3-yl-benzoxazol-6-yl)-4,5-dihydro-2H-pyridazin-3-one]	6.76
Cc1ccc(-c2nc3ccc(C4=NNC(=O)[C@@H](C)[C@H]4C)cc3o2)s1 [Example 24, (4S,5R)-4,5-dimethyl-6-[2-(5-methyl-thiophen-2-yl)-benzoxazol-6-yl]-4,5-dihydro-2H-pyridazin-3-one]	5.29
CCC1CC(=O)NN=C1c1ccc2nc(-c3ccc(OCCN4CCCC4=O)cc3)oc2c1 (stereo not shown) [Example 167, 5-ethyl-6-(2-{4-[2-(2-oxo-pyrrolidin-1-yl)-ethoxy]-phenyl}-benzoxazol-6-yl)-4,5-dihydro-2H-pyridazin-3-one]	5.99
CC[C@H]1CC(=O)NN=C1c1ccc2nc(-c3ccc(OC(C)C)cc3)oc2c1 [Example 192, (S)-5-ethyl-6-[2-(4-isopropoxy-phenyl)-benzoxazol-6-yl]-4,5-dihydro-2H-pyridazin-3-one]	5.22
O=c1ccc(-c2ccc3nc(-c4cccs4)oc3c2)n[nH]1 [Example 257, 6-(2-thiophen-2-yl-benzoxazol-6-yl)-2H-pyridazin-3-one]	6.34
CCC1CC(=O)NN=C1c1ccc2nc(-c3ccc(OCC(=O)O)cc3)oc2c1 (stereo not shown) [Example 70, 4-[6-(4-ethyl-6-oxo-1,4,5,6-tetrahydro-pyridazin-3-yl)-benzoxazol-2-yl]-phenoxy-acetic acid]	5.41
CCC1CC(=O)NN=C1c1ccc2nc(-c3ccc(OCC(=O)N(C)C)cc3)oc2c1 (stereo not shown) [Example 41, 2-{4-[6-(4-ethyl-6-oxo-1,4,5,6-tetrahydro-pyridazin-3-yl)-benzoxazol-2-yl]-phenoxy}-N,N-dimethyl-acetamide]	5.82
CCCN(CCOc1ccc(-c2nc3ccc(C4=NNC(=O)CC4CC)cc3o2)cc1)C(C)C (stereo not shown) [Example 249, 5-ethyl-6-(2-{4-[2-(isopropyl-propyl-amino)-ethoxy]-phenyl}-benzoxazol-6-yl)-4,5-dihydro-2H-pyridazin-3-one]	7.24
CCC1CC(=O)NN=C1c1ccc2nc(-c3ccc(OC)cc3F)oc2c1 (stereo not shown) [Example 91, 5-ethyl-6-[2-(2-fluoro-4-methoxy-phenyl)-benzoxazol-6-yl]-4,5-dihydro-2H-pyridazin-3-one]	6.85
CCC1CC(=O)NN=C1c1ccc2nc(-c3cccc(OCCN4CCCCCC4)c3)oc2c1 (stereo not shown) [Example 149, 6-{2-[3-(2-azepan-1-yl-ethoxy)-phenyl]-benzoxazol-6-yl}-5-ethyl-4,5-dihydro-2H-pyridazin-3-one]	6.25
CCC1CC(=O)NN=C1c1ccc2nc(-c3ccc(OC4CCCC4)cc3)oc2c1 (stereo not shown) [Example 176, 6-[2-(4-cyclopentyloxy-phenyl)-benzoxazol-6-yl]-5-ethyl-4,5-dihydro-2H-pyridazin-3-one]	7.09
CCC[C@H]1C(=O)NN=C(c2ccc3nc(-c4cc(C)cs4)oc3c2)[C@@H]1C (relative stereo) [Example 186, trans-5-methyl-6-[2-(4-methyl-thiophen-2-yl)-benzoxazol-6-yl]-4-propyl-4,5-dihydro-2H-pyridazin-3-one]	7.06
CCC1CC(=O)NN=C1c1ccc2nc(-c3ccc(OCC4CCN(C(=O)OC(C)(C)C)CC4)cc3)oc2c1 (stereo not shown) [Example 67, tert-butyl 4-{4-[6-(4-ethyl-6-oxo-1,4,5,6-tetrahydro-pyridazin-3-yl)-benzoxazol-2-yl]-phenoxymethyl}-piperidine-1-carboxylate]	7.29
O=C1NN=C([C@@H]2CCc3nc(-c4ccccc4)oc3C2)[C@H]2C[C@@H]12 [Example 132, (1R,6S)-5-((R)-2-phenyl-4,5,6,7-tetrahydro-benzoxazol-6-yl)-3,4-diaza-bicyclo[4.1.0]hept-4-en-2-one]	5.38
CCC1CC(=O)NN=C1c1ccc2nc(-c3ccc(OCCN4CCSCC4)cc3)oc2c1 (stereo not shown) [Example 247, 5-ethyl-6-{2-[4-(2-thiomorpholin-4-yl-ethoxy)-phenyl]-benzoxazol-6-yl}-4,5-dihydro-2H-pyridazin-3-one]	7.21
CCC1CC(=O)NN=C1c1ccc2nc(-c3cccc(OCCN4CCN(C(C)CC)CC4)c3)oc2c1 (stereo not shown) [Example 157, 6-(2-{3-[2-(4-sec-butyl-piperazin-1-yl)-ethoxy]-phenyl}-benzoxazol-6-yl)-5-ethyl-4,5-dihydro-2H-pyridazin-3-one]	5.69
CCC[C@H]1C(=O)NN=C(c2ccc3nc(C4CC4)oc3c2)[C@@H]1C (stereo in doubt) [Example 253, 6-(2-cyclopropyl-benzoxazol-6-yl)-5-methyl-4-propyl-4,5-dihydro-2H-pyridazin-3-one]	6.52
